Where two headings read alike, the source gives them in different places. Marks after values point to notes of the source that are not given here. A value given as a limit tells only on which side of the number the result lay.

One data set in a line: in vivo. As to conditions: cynomolgus, cynomolgus monkey, po.
Data set [1] in a line: Plasma PK of metabolites in non-human primates after oral Compound 2A. The note with it: cynomolgus, cynomolgus monkey, in vivo, 30 mg/kg.
The next data set relates to HCV. As to conditions: HCV-infected subjects, cited from earlier work.
The next data set has as its system HCoV. Nature of the data set: Protection of MES-1 cells from virus-induced cytopathogenicity (MTT). In kind it is cell-based. As to conditions: unidentified human coronavirus, 72 h, 50% protection of MES-1 cells, day 3 post-infection. The procedure: (§1) After a 3-day incubation at 37° C. cell viability was determined by the MTT method as described by Pauwels et al. (J. Virol. Methods 1988, 20, 309-321).
On the technique in general: Cytopathic effects are the visible damage that an infection or toxin causes in cultured cells.

The nature of data set [2]: Cytotoxicity in mock infected BHK-21 cells (MTT). Type of data set: cell-based, hamster. As to conditions: hamster. The procedure:
(§2) To determine the cytotoxicity, cells were seeded at an initial density of 1×10^6 cells/mL in 96 well plates containing Minimum Essential Medium with Earles's salts (MEM-E), L-glutamine, 1 mM sodium pyruvate and 25 mg/L kanamycin, supplemented with 10% fetal bovine serum. Cell cultures were then incubated at 37° C. in a humidified 5% CO2 atmosphere in the absence or presence of serial dilutions of test compounds. Cell viability was determined by the MTT method.
(§3) BHK-21 cells: Test compounds were dissolved in DMSO at 100 mM and then diluted in Minimum Essential Medium with Earle's salts (MEM-E) containing 1 mM sodium pyruvate and 25 μg/mL kanamycin, supplemented with 10% FBS (growth medium) to final concentrations of 100, 20, 4 and 0.8 μM (two 24-well replica plates each). After BHK-21 cells were grown to confluency in 96-well plates, growth medium was replaced with fresh maintenance medium (growth medium with 1% inactivated FBS in place of 10% FBS) containing serially diluted test compound and HCoV-229E at a multiplicity of infection (MOI) of 0.01. Uninfected cells in the presence of serially diluted compound were used to assess the cytotoxicity of compounds. After a 3-day incubation at 37° C. in a humidified 5% CO2 atmosphere, cell viability was determined by the MTT method (Pauwels, R et al. J. Virol. Methods 20(4):309-321 (1988)).

The next data set has as its system mock infected BHK cells. Kind of data set: Cytotoxicity in mock infected BHK-21 cells (MTT). The note with it: mock infected BHK cells; MTT; 3 days; Table 2B. In kind it is cell-based, hamster. The protocol: as §2, §3
Data set [3] relates to HCoV-229E. Kind of data set: Protection of BHK-21 cells from virus-induced cytopathogenicity (MTT). Type of data set: cell-based, human coronavirus. As to conditions: Human coronavirus 229E, read-out: EC50. The procedure:
as §1
In an initial screening, BHK-21 cells acutely infected with a seasonal human alpha coronavirus, HCoV-229E, were exposed to serial dilutions of Compound 1A. […] No toxicity was detected from either drug.
as §3

Data set [4] can be described thus: Cytotoxicity in mock infected MES-1 cells (MTT). Type of data set: cell-based. The note with it: Table 3A. The procedure: as §2
Data set [5] relates to mock infected MES-1 cells. Nature of the data set: Cytotoxicity in mock infected MES-1 cells (MTT). In kind it is cell-based. The note with it: 3 days, Table 3B. The procedure:
as §2

Data set [6] has as its system HCoV-229E. Nature of the data set: microbe, parasite or virus in culture. In kind it is cell-based, human coronavirus alpha-229E. As to conditions: for EC50: Huh-7, read-out: Neutral Red Assay EC50.
A further data set deals with Huh-7 cells. As to conditions: human.
[7] abbreviates: mock infected BHK-21 cells, mock infected BHK cells, MTT, 3 days, Table 2A.
Where [8] appears, read: BHK, 72 h, 50% protection of BHK cells, MTT, day 3 post-infection, Table 2A.
Setting [9] is: BHK, 72 h, 50% protection of BHK cells, MTT, day 3 post-infection, Table 2B.
[10] abbreviates: Human coronavirus 229E, Huh-7, read-out: Virus Yield Reduction Assay EC90.

In “in vivo”, `C[C@@]1(F)[C@H](O)[C@@H](CO)O[C@H]1n1cnc2c(=O)[nH]c(N)nc21` [Compound 1-7, 2-amino-9-((2R,3R,4R,5R)-3-fluoro-4-hydroxy-5-(hydroxymethyl)-3-methyltetrahydrofuran-2-yl)-1,9-dihydro-6H-purin-6-one] had a concentration at 12 h of 39 ng/mL. For the same molecule, in “in vivo” (30 mg/kg), the AUC(0-t) (usually the area under the concentration-time curve up to a stated or last time point) stood at 0.47 µM·h and the half-life (as a rule, how long it takes for the measured level to halve) was 17 h. Further, in [1], the peak concentration (Cmax) (commonly the highest concentration seen after dosing) stood at 160 nM and the time to peak (Tmax) (commonly the time at which the peak concentration occurs) was 2 h.

Regarding `CNc1nc(N)nc2c1ncn2[C@@H]1O[C@H](CO[P@@](=O)(N[C@@H](C)C(=O)OC(C)C)Oc2ccccc2)[C@@H](O)[C@@]1(C)F` [Compound 2A], the efficacy entry in the data set with HCV was “high rate of efficacy”. Also, the safety and tolerability entry in the data set on HCV (up to 12 weeks) is “safe and well-tolerated”.

Take `CNc1nc(N)nc2c1ncn2[C@@H]1O[C@H](CO[P@](=O)(N[C@@H](C)C(=O)OC(C)C)Oc2ccccc2)[C@@H](O)[C@@]1(C)F` [Compound 1B]: the EC50 (usually the concentration giving half of the maximal effect) amounted to 2 µM in the data set with HCoV (Table 3A), 2.2 µM with HCoV (Table 3B), 2.5 µM with HCoV-229E [3] (setting [8]) and 2.9 µM in the data set with HCoV-229E [3] (setting [9]). Besides, the CC50 at 3 days in [2] (setting [7]) and in data set [4] was over 100 µM in each case. Also, the half-maximal cytotoxic concentration (CC50) (in the data set on mock infected BHK cells; in data set [5]) was over 100 µM in each case.

Regarding `CC(C)OC(=O)[C@H](C)N[P@](=O)(OC[C@H]1O[C@@H](n2ccc(=O)[nH]c2=O)[C@](C)(F)[C@@H]1O)Oc1ccccc1` [sofosbuvir, reference compound], the concentration for a half-maximal effect (EC50) was over 100 µM in the data set with HCoV (Table 3A); over 100 µM in the data set on HCoV (Table 3B); over 100 µM in the data set with HCoV-229E [3] (setting [8]); over 100 µM in the data set with HCoV-229E [3] (setting [9]); over 100 µM with HCoV-229E [3] (BHK-21, HCoV-229E in BHK-21, dye staining, average of 2 experiments, Table 5). Also, the CC50 (commonly the concentration that lowers cell viability or growth by half) at 3 days in data set [2] (setting [7]) was over 100 µM; in data set [2] (uninfected BHK-21 cells, BHK-21, Table 5), over 100 µM; in [4], over 100 µM. The CC50 (in the data set on mock infected BHK cells; in data set [5]) was over 100 µM in each case.

Regarding `CCN(CCO)CCCC(C)Nc1ccnc2cc(Cl)ccc12` (stereo not drawn) [hydroxychloroquine, reference compound], in the data set on HCoV-229E [6], the “Selectivity Index (CC50/EC50)” value is reported as 3.5^c. The 50% effective concentration (EC50) in the data set with HCoV-229E [6] (Human coronavirus 229E) was 7.4 µM. For the same molecule, the EC90 (commonly the point of the concentration-response curve where the effect stands at 90%) in the data set with HCoV-229E [6] (setting [10]) is under 0.05 µM; in the data set with HCoV-229E [6] (read-out: Virus Yield Reduction Assay EC90) it was under 0.048 µM. For the same molecule, it took 26 µM to reach half-maximal cytotoxicity in the data set on Huh-7 cells (CC50).

As for `CCN(CC)CCCC(C)Nc1ccnc2cc(Cl)ccc12` (stereo not drawn) [chloroquine, reference compound], the EC50 with HCoV-229E [6] (Human coronavirus 229E) stood at 8.1 µM. Besides, the EC90 with HCoV-229E [6] (setting [10]) was under 0.05 µM. The same molecule gave a CC50 in the data set on Huh-7 cells of 21 µM.
